Experimental data: ChEMBL document CHEMBL3399921, “Novel 2-(2-phenalkyl)-1H-benzo[d]imidazoles as antitubercular agents. Synthesis, biological evaluation and structure-activity relationship” (Bioorg Med Chem, 2015)
Values after ≈ are worked out from the molar mass of the structure shown.

Tested on: Mycobacterium tuberculosis variant bovis
Assay: Tuberculostatic activity against Mycobacterium bovis by two-fold classical test-tube method
Format: functional

Question: How did the MIC turn out when `Cc1cc2nc(CCc3ccccc3)[nH]c2cc1C` was run?
Answer: The MIC was 6.3 µM (≈ 1.58 µg/mL).

Question: `Cc1cc2nc(CCc3cc(Cl)cc(Cl)c3)[nH]c2cc1C` was tested. Which MIC did it give?
Answer: Its MIC is 19 µM (≈ 6.07 µg/mL).

Question: How did the MIC turn out when `Nc1c(NC(=O)CCc2cc(Cl)cc(Cl)c2)cc(Cl)cc1[N+](=O)[O-]` was run?
Answer: The MIC was 65 µM (≈ 25.3 µg/mL).
